From the supplement of paper PMC10307832

Legend:
Assay in all cases: relative viability (nuclei count vs DMSO), 5 days (fraction); higher = more cells survive
LU99A = tested on: LU99A
Method in brief: (§1)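 Cells from lung cancer lines were seeded into 1536-well plates and, one day later, dosed by pin tool. Treatments were either a single drug or a fixed dose of an anchor drug with five library-drug doses (not always all listed) in √10 steps. After 5 days, nuclei were stained in a one-step fixation (final 0.05% Triton X-100, 1% formaldehyde, 1 ug/ml Hoechst) and counted on 4× images, and relative viability is the treated-to-vehicle nuclei ratio, as the median of duplicate plates.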

SK-LU-1 = tested on: SK-LU-1
Method in brief: as §1

NCI-H1651 = tested on: NCI-H1651
Method in brief: as §1

NCI-H441 = tested on: NCI-H441
Method in brief: as §1

NCI-H1734 = tested on: NCI-H1734
Method in brief: as §1

NCI-H460 = tested on: NCI-H460
Method in brief: as §1

HCC-366 = tested on: HCC-366
Method in brief: as §1

COR-L23 = tested on: COR-L23
Method in brief: as §1

NCI-H1650 = tested on: NCI-H1650
Method in brief: as §1

NCI-H1355 = tested on: NCI-H1355
Method in brief: as §1

BEN = tested on: BEN
Method in brief: as §1

Question: For O=c1cc(-c2cccc3c2Sc2ccccc2S3)oc(N2CCOCC2)c1 + Nc1nc2[nH]cc(CCc3ccc(C(=O)N[C@@H](CCC(=O)O)C(=O)O)cc3)c2c(=O)[nH]1 [Pemetrexed] (partner 0.2 µM), which relative viability (LU99A; first compound 0.08 µM) is on record?
Answer: The relative viability was 0.201.

Question: And the relative viability (LU99A; first compound 0.253 µM)?
Answer: The relative viability was 0.169.

Question: What about the relative viability (LU99A; first compound 0.8 µM) of the same molecule?
Answer: The relative viability was 0.184.

Question: And the relative viability (LU99A; first compound 2.53 µM)?
Answer: Its relative viability is 0.324.

Question: And the relative viability (LU99A; first compound 8 µM)?
Answer: The relative viability was 0.187.

Question: And the relative viability (SK-LU-1; first compound 0.08 µM)?
Answer: Its relative viability is 1.1.

Question: What about the relative viability (SK-LU-1; first compound 0.253 µM) of the same molecule?
Answer: The relative viability was 1.27.

Question: And the relative viability (SK-LU-1; first compound 0.8 µM)?
Answer: The relative viability was 1.14.

Question: What about the relative viability (SK-LU-1; first compound 2.53 µM) of the same molecule?
Answer: The relative viability was 0.885.

Question: And the relative viability (SK-LU-1; first compound 8 µM)?
Answer: Its relative viability is 1.03.

Question: And the relative viability (NCI-H1651; first compound 0.08 µM)?
Answer: The relative viability was 0.563.

Question: And the relative viability (NCI-H1651; first compound 0.253 µM)?
Answer: Its relative viability is 0.636.

Question: And the relative viability (NCI-H1651; first compound 0.8 µM)?
Answer: Its relative viability is 0.604.

Question: What about the relative viability (NCI-H1651; first compound 2.53 µM) of the same molecule?
Answer: The relative viability was 0.589.

Question: What about the relative viability (NCI-H1651; first compound 8 µM) of the same molecule?
Answer: Its relative viability is 0.603.

Question: What about the relative viability (NCI-H441; first compound 0.08 µM) of the same molecule?
Answer: The relative viability was 0.258.

Question: What about the relative viability (NCI-H441; first compound 0.253 µM) of the same molecule?
Answer: Its relative viability is 0.268.

Question: And the relative viability (NCI-H441; first compound 0.8 µM)?
Answer: The relative viability was 0.255.

Question: What about the relative viability (NCI-H441; first compound 2.53 µM) of the same molecule?
Answer: The relative viability was 0.26.

Question: What about the relative viability (NCI-H441; first compound 8 µM) of the same molecule?
Answer: The relative viability was 0.241.

Question: And the relative viability (NCI-H1734; first compound 0.08 µM)?
Answer: Its relative viability is 0.394.

Question: What about the relative viability (NCI-H1734; first compound 0.253 µM) of the same molecule?
Answer: The relative viability was 0.45.

Question: And the relative viability (NCI-H1734; first compound 0.8 µM)?
Answer: The relative viability was 0.487.

Question: What about the relative viability (NCI-H1734; first compound 8 µM) of the same molecule?
Answer: Its relative viability is 0.432.

Question: What about the relative viability (NCI-H460; first compound 0.08 µM) of the same molecule?
Answer: The relative viability was 0.0549.

Question: And the relative viability (NCI-H460; first compound 0.253 µM)?
Answer: The relative viability was 0.0572.

Question: And the relative viability (NCI-H460; first compound 0.8 µM)?
Answer: Its relative viability is 0.0622.

Question: And the relative viability (NCI-H460; first compound 2.53 µM)?
Answer: Its relative viability is 0.0639.

Question: And the relative viability (NCI-H460; first compound 8 µM)?
Answer: Its relative viability is 0.0685.

Question: What about the relative viability (HCC-366; first compound 0.08 µM) of the same molecule?
Answer: Its relative viability is 0.154.

Question: What about the relative viability (HCC-366; first compound 0.253 µM) of the same molecule?
Answer: The relative viability was 0.193.

Question: And the relative viability (HCC-366; first compound 0.8 µM)?
Answer: The relative viability was 0.167.

Question: And the relative viability (HCC-366; first compound 2.53 µM)?
Answer: Its relative viability is 0.154.

Question: What about the relative viability (HCC-366; first compound 8 µM) of the same molecule?
Answer: The relative viability was 0.155.

Question: What about the relative viability (COR-L23; first compound 0.08 µM) of the same molecule?
Answer: The relative viability was 0.194.

Question: What about the relative viability (COR-L23; first compound 0.253 µM) of the same molecule?
Answer: The relative viability was 0.215.

Question: And the relative viability (COR-L23; first compound 0.8 µM)?
Answer: Its relative viability is 0.215.

Question: And the relative viability (COR-L23; first compound 2.53 µM)?
Answer: Its relative viability is 0.195.

Question: And the relative viability (COR-L23; first compound 8 µM)?
Answer: The relative viability was 0.197.

Question: What about the relative viability (NCI-H1650; first compound 0.08 µM) of the same molecule?
Answer: Its relative viability is 0.362.

Question: What about the relative viability (NCI-H1650; first compound 0.253 µM) of the same molecule?
Answer: The relative viability was 0.366.

Question: What about the relative viability (NCI-H1650; first compound 0.8 µM) of the same molecule?
Answer: Its relative viability is 0.407.

Question: And the relative viability (NCI-H1650; first compound 2.53 µM)?
Answer: Its relative viability is 0.415.

Question: What about the relative viability (NCI-H1650; first compound 8 µM) of the same molecule?
Answer: Its relative viability is 0.36.

Question: What about the relative viability (NCI-H1355; first compound 0.08 µM) of the same molecule?
Answer: The relative viability was 1.11.

Question: What about the relative viability (NCI-H1355; first compound 0.253 µM) of the same molecule?
Answer: Its relative viability is 1.15.

Question: And the relative viability (NCI-H1355; first compound 0.8 µM)?
Answer: Its relative viability is 0.898.

Question: And the relative viability (NCI-H1355; first compound 2.53 µM)?
Answer: The relative viability was 0.995.

Question: And the relative viability (NCI-H1355; first compound 8 µM)?
Answer: The relative viability was 1.06.

Question: And the relative viability (BEN; first compound 0.08 µM)?
Answer: Its relative viability is 0.72.

Question: What about the relative viability (BEN; first compound 0.253 µM) of the same molecule?
Answer: Its relative viability is 0.834.

Question: And the relative viability (BEN; first compound 0.8 µM)?
Answer: The relative viability was 0.696.

Question: And the relative viability (BEN; first compound 2.53 µM)?
Answer: The relative viability was 0.801.

Question: What about the relative viability (BEN; first compound 8 µM) of the same molecule?
Answer: Its relative viability is 1.07.
